For one data set, the system named is MRSA biofilm (CBD-635). The data set can be described thus: In vitro MRSA biofilm assay. It is filed as cell-based, Staphylococcus aureus. The source says:
(§1) Spongian diterpenes are well known as bioactive natural products. Darwinolide was screened for activity against a clinical strain of a highly resistant Staphylococcus aureus (MRSA). […] The remaining colony was subjected to a cell recovery experiment overnight after washout of darwinolide. […] Based on the 4-fold selectivity of darwinolide for MRSA biofilms over planktonic cells, and its low mammalian cytotoxicity, darwinolide presents a highly suitable scaffold for the development of urgently needed, novel anti-biofilm-specific antibiotics.
(§2) A clinical, multi-drug resistant strain of MRSA (CBD-635) was used in these studies for minimum inhibitory concentration (MIC) determination and assessment of anti-biofilm properties, all as described previously (Fleeman et al., J. Med. Chem. 2015, 58, 3340-3355).

Data set [1] can be described thus: Cytotoxicity assay (MTS, 72 h) in J774 macrophage cell line. The settings on record: mouse, J774.A-1 macrophage cell line. It is filed as cell-based.
Source text: as §1
The J774.A-1 cell line was used for cytotoxicity screening via a colorometric method employing a tetrazolium derivative [3-(4,5-dimethylthiazol-2-yl)-5-(3-carboxymethoxyphenyl)-2-(4-sulfophenyl)-2H-tetrazolium] (MTS) 72 h assay using 50000 […] per well, and an electron-coupling reagent, and penazine methosulphate (PMS) were used in the assay. IC50 values were calculated from sigmoidal inhibition curves using SigmaPlot 11.0 software (von Salm et al., J. Org. Lett. 2014, 16, 2630-2633).

For data set [2], the system named is methicillin-resistant Staphylococcus aureus (MRSA) CBD-635. It counts as cell-based.
Source text: as §1, §2

For data set [3] the test system is unchanged. As to the kind of experiment: Broth dilution MIC assay against clinical MRSA strain. It counts as cell-based.
Source text: as §1, §2
In general terms: Dilution methods test growth across graded concentrations, often in twofold steps.

Values after ≈ are worked out from the molar mass of the structure shown.

For orientation: IC50 means the concentration needed to halve the response being measured. What is called MIC is the lowest concentration found to suppress growth. With `CC(=O)O[C@@H]1O[C@H]2OC(=O)C3=C(C)[C@@H]([C@@]4(C)CCCC(C)(C)C4)CC[C@@H]1[C@H]32` [darwinolide], the IC50 in the data set with MRSA biofilm (CBD-635) (Staphylococcus aureus, biofilm established in vitro with same MRSA strain, read-out: IC50 against the biofilm) was 33.2 µM. In addition, the “selectivity for MRSA biofilms over planktonic cells” value in the data set on MRSA biofilm (CBD-635) (biofilm IC50 vs planktonic MIC) was 4 fold. Further, in data set [1], the 50% inhibitory concentration (IC50) at 72 h amounted to 73.4 µM. In addition, the “cytotoxic or cytostatic toward S. aureus” value in data set [2] (conclusion from cell recovery experiment) is on record as “cytotoxic, rather than cytostatic”. For the same compound, the “treated bacterium able to recover and grow” value in data set [2] (overnight recovery after washout of darwinolide, colony remaining from MIC assay) is 1.6%. Also, in data set [3], the minimal inhibitory concentration (MIC) turned out to be 133 µM (≈ 50 µg/mL).

The record behind these values is patent US11213507B2, “MRSA biofilm inhibition” (University of South Florida, priority 2016, dated 2022).
